From a compilation of properties of binary mixtures (doi:10.1016/j.molliq.2014.08.031)

Experiment: xn = mol fraction of the nth substance listed
Details: 101 kPa

CCCC[n+]1ccn(C)c1.CS(=O)(=O)[O-] + O
Details	electrical conductivity [S/m]	viscosity [mPa·s]
328.15 K, x2 = 0.796	3.01	–
328.15 K, x2 = 0.861	5.12	–
328.15 K, x2 = 0.892	6.23	–
328.15 K, x2 = 0.929	7.21	–
328.15 K, x2 = 0.968	7	–
329.15 K, x1 = 0.004	2.04	–
329.15 K, x1 = 0.008	3.67	–
329.15 K, x1 = 0.019	5.81	–
329.15 K, x2 = 0.785	2.9	–
329.15 K, x2 = 0.796	3.05	–
329.15 K, x2 = 0.861	5.25	–
329.15 K, x2 = 0.892	6.26	–
329.15 K, x2 = 0.929	7.35	–
329.15 K, x2 = 0.951	7.83	–
330.15 K, x1 = 0.004	2.09	–
330.15 K, x1 = 0.008	3.72	–
330.15 K, x1 = 0.019	5.88	–
330.15 K, x2 = 0.704	1.84	–
330.15 K, x2 = 0.785	2.98	–
330.15 K, x2 = 0.861	5.37	–
330.15 K, x2 = 0.892	6.36	–
330.15 K, x2 = 0.929	7.5	–
330.15 K, x2 = 0.951	7.95	–
330.15 K, x2 = 0.968	7.38	–
331.15 K, x1 = 0.004	2.13	–
331.15 K, x1 = 0.008	3.77	–
331.15 K, x2 = 0.785	3.04	–
331.15 K, x2 = 0.796	3.2	–
331.15 K, x2 = 0.892	6.46	–
331.15 K, x2 = 0.929	7.61	–
331.15 K, x2 = 0.951	8.05	–
331.15 K, x2 = 0.968	7.39	–
332.15 K, x1 = 0.004	2.15	–
332.15 K, x1 = 0.008	3.83	–
332.15 K, x1 = 0.019	6.06	–
332.15 K, x2 = 0.704	1.99	–
332.15 K, x2 = 0.785	3.13	–
332.15 K, x2 = 0.796	3.29	–
332.15 K, x2 = 0.861	5.61	–
332.15 K, x2 = 0.892	6.57	–
332.15 K, x2 = 0.968	7.57	–
333.15 K, x1 = 0.004	2.17	–
333.15 K, x1 = 0.008	3.78	–
333.15 K, x1 = 0.019	6.17	–
333.15 K, x2 = 0.5596	–	14
333.15 K, x2 = 0.6542	–	9.62
333.15 K, x2 = 0.704	2.04	–
333.15 K, x2 = 0.7495	–	6.25
333.15 K, x2 = 0.785	3.21	–
333.15 K, x2 = 0.796	3.36	–
333.15 K, x2 = 0.8521	–	3.29
333.15 K, x2 = 0.861	5.75	–
333.15 K, x2 = 0.892	6.73	–
333.15 K, x2 = 0.9254	–	1.742
333.15 K, x2 = 0.929	7.9	–
333.15 K, x2 = 0.951	8.3	–
333.15 K, x2 = 0.975	–	0.79
334.15 K, x1 = 0.004	2.18	–
334.15 K, x1 = 0.008	3.93	–
334.15 K, x1 = 0.019	6.35	–
334.15 K, x2 = 0.704	2.12	–
334.15 K, x2 = 0.785	3.28	–
334.15 K, x2 = 0.796	3.43	–
334.15 K, x2 = 0.861	5.94	–
334.15 K, x2 = 0.892	6.95	–
334.15 K, x2 = 0.929	8.03	–
334.15 K, x2 = 0.951	8.46	–
335.15 K, x1 = 0.008	3.98	–
335.15 K, x1 = 0.019	6.33	–
335.15 K, x2 = 0.704	2.17	–
335.15 K, x2 = 0.785	3.35	–
335.15 K, x2 = 0.796	3.52	–
335.15 K, x2 = 0.861	5.97	–
335.15 K, x2 = 0.892	7.12	–
335.15 K, x2 = 0.929	8.18	–
335.15 K, x2 = 0.951	8.59	–
335.15 K, x2 = 0.968	7.93	–
336.15 K, x1 = 0.008	4.04	–
336.15 K, x1 = 0.019	6.42	–
336.15 K, x2 = 0.704	2.19	–
336.15 K, x2 = 0.785	3.42	–
336.15 K, x2 = 0.796	3.59	–
336.15 K, x2 = 0.861	6.09	–
336.15 K, x2 = 0.892	7.28	–
336.15 K, x2 = 0.929	8.3	–
336.15 K, x2 = 0.968	8.02	–
337.15 K, x1 = 0.004	2.29	–
337.15 K, x1 = 0.008	4.1	–
337.15 K, x1 = 0.019	6.53	–
337.15 K, x2 = 0.704	2.3	–
337.15 K, x2 = 0.785	3.52	–
337.15 K, x2 = 0.892	7.41	–
337.15 K, x2 = 0.951	8.9	–
337.15 K, x2 = 0.968	8.19	–
338.15 K, x1 = 0.004	2.31	–
338.15 K, x1 = 0.008	4.15	–
338.15 K, x2 = 0.704	2.35	–
338.15 K, x2 = 0.892	7.53	–
338.15 K, x2 = 0.929	8.57	–
338.15 K, x2 = 0.968	8.14	–
339.15 K, x1 = 0.004	2.35	–
339.15 K, x1 = 0.008	4.19	–
339.15 K, x1 = 0.019	6.73	–
339.15 K, x2 = 0.704	2.42	–
339.15 K, x2 = 0.785	3.67	–
339.15 K, x2 = 0.796	3.85	–
339.15 K, x2 = 0.861	6.47	–
339.15 K, x2 = 0.892	7.69	–
339.15 K, x2 = 0.929	8.73	–
339.15 K, x2 = 0.951	9.11	–
340.15 K, x1 = 0.004	2.39	–
340.15 K, x1 = 0.008	4.25	–
340.15 K, x1 = 0.019	6.83	–
340.15 K, x2 = 0.704	2.47	–
340.15 K, x2 = 0.785	3.75	–
340.15 K, x2 = 0.796	3.93	–
340.15 K, x2 = 0.861	6.6	–
340.15 K, x2 = 0.892	7.77	–
340.15 K, x2 = 0.929	8.85	–
340.15 K, x2 = 0.951	9.22	–
340.15 K, x2 = 0.968	8.56	–
341.15 K, x1 = 0.004	2.42	–
341.15 K, x1 = 0.008	4.29	–
341.15 K, x1 = 0.019	6.96	–
341.15 K, x2 = 0.704	2.54	–
341.15 K, x2 = 0.785	3.84	–
341.15 K, x2 = 0.796	4.07	–
341.15 K, x2 = 0.861	6.71	–
341.15 K, x2 = 0.929	9.03	–
341.15 K, x2 = 0.951	9.15	–
341.15 K, x2 = 0.968	8.57	–
342.15 K, x1 = 0.008	4.35	–
342.15 K, x1 = 0.019	6.93	–
342.15 K, x2 = 0.704	2.61	–
342.15 K, x2 = 0.796	4.11	–
342.15 K, x2 = 0.929	9.18	–
342.15 K, x2 = 0.951	9.55	–
342.15 K, x2 = 0.968	8.66	–
343.15 K, x1 = 0.008	4.38	–
343.15 K, x1 = 0.019	7.17	–
343.15 K, x2 = 0.5596	–	10.6
